Measurements as given in ChEMBL document CHEMBL4402592, “Targeting Endoplasmic Reticulum α-Glucosidase I with a Single-Dose Iminosugar Treatment Protects against Lethal Influenza and Dengue Virus Infections” (J Med Chem, 2020).
The source made the active and inactive calls. The rule behind the calls is not given here.

How the values were obtained:
[1] = system: Influenza A virus; assay: Antiviral activity against Influenza A virus (A/Texas/36/1991(H1N1)) infected in BALB/c mouse assessed as median death time at 100 mg/kg, po administered via gavage starting at 8 hrs post-infection and continuing TID for 5 days; assay type: functional
[2] = system: dengue virus type 2; assay: (§1) Antiviral activity against Dengue virus 2 S221 infected in DENV antibody dependent enhancement AG129 mouse model assessed as reduction in IL-12/IL-23p40 level at 750 mg/kg, po administered via gavage as single dose at 36 hrs post infection measured at 60 hrs post-infection by electrochemiluminescence based method; assay type: functional, organism-based
[3] = system: dengue virus type 2; assay: Antiviral activity against Dengue virus 2 S221 infected in DENV antibody dependent enhancement AG129 mouse model assessed as animal survival at 375 mg/kg, po administered via gavage as two doses at 24 and 40 hrs post infection (reference value: 4%); assay type: functional
[4] = system: Influenza A virus; assay: Antiviral activity against Influenza A virus (A/Texas/36/1991(H1N1)) infected in BALB/c mouse assessed as animal survival at 500 mg/kg, po administered via gavage as single dose at 8 hrs post infection (reference value: 0%); assay type: functional
[5] = system: dengue virus type 2; assay: as §1, with “IFN-gamma” for “IL-12/IL-23p40”, “two doses” for “single dose”, “36 hrs and 52” for “36”; assay type: functional, organism-based
[6] = Half life in BALB/c mouse at 5 mg/kg, iv or 200 mg/kg, po measured upto 48 hrs by LC-MS/MS analysis; assay type: ADME, organism-based; settings: in vivo
[7] = system: dengue virus type 2; assay: Antiviral activity against Dengue virus 2 S221 infected in DENV antibody dependent enhancement AG129 mouse model assessed as animal survival at 250 mg/kg, po administered via gavage as two doses at 8 and 24 hrs post infection (reference value: 4%); assay type: functional
[8] = system: dengue virus type 2; assay: Antiviral activity against Dengue virus 2 S221 infected in DENV antibody dependent enhancement AG129 mouse model assessed as animal survival at 750 mg/kg, po administered via gavage as two doses at 36 and 52 hrs post infection (reference value: 4%); assay type: functional
[9] = system: dengue virus type 2; assay: Antiviral activity against Dengue virus 2 S221 infected in DENV antibody dependent enhancement AG129 mouse model assessed as animal survival at 250 mg/kg, po administered via gavage as two doses at 36 and 52 hrs post infection (reference value: 4%); assay type: functional
[10] = system: Influenza A virus; assay: Antiviral activity against Influenza A virus (A/Texas/36/1991(H1N1)) infected in BALB/c mouse assessed as animal survival at 750 mg/kg, po administered via gavage as single dose at 16 hrs post infection (reference value: 0%); assay type: functional
[11] = system: dengue virus type 2; assay: as §1, with “72” for “60”; assay type: functional, organism-based
[12] = system: Mus musculus; assay: In vivo inhibition of ERGlu1 in BALB/c mouse assessed as increase in tri-glucosylated FOS level in spleen at 750 mg/kg, po administered via gavage as single dose and measured after 16 hrs by NP-HPLC analysis; assay type: functional, organism-based
[13] = system: Influenza A virus; assay: Antiviral activity against Influenza A virus (A/Texas/36/1991(H1N1)) infected in BALB/c mouse assessed as animal survival at 500 mg/kg, po administered via gavage as three doses at 8, 32 and 56 hrs post infection (reference value: 0%); assay type: functional
[14] = system: dengue virus type 2; assay: Antiviral activity against Dengue virus 2 S221 infected in DENV antibody dependent enhancement AG129 mouse model assessed as log10 reduction in viremia by measuring foci of BHK21 cells containing DENV E at 750 mg/kg, po administered via gavage as single dose at 36 hrs post infection measured after titration of compound treated infected animal serum with BHK21 cells by TrueBlue staining based focus forming assay; assay type: functional
[15] = system: dengue virus type 2; assay: Antiviral activity against Dengue virus 2 S221 infected in DENV antibody dependent enhancement AG129 mouse model assessed as animal survival at 500 mg/kg, po administered via gavage as two doses at 36 and 52 hrs post infection (reference value: 4%); assay type: functional
[16] = system: Influenza A virus; assay: Antiviral activity against Influenza A virus (A/Texas/36/1991(H1N1)) infected in BALB/c mouse assessed as median death time at 750 mg/kg, po administered via gavage as single dose at 16 hrs post infection (reference value: 8.5 days); assay type: functional
[17] = system: Mus musculus; assay: In vivo inhibition of ERGlu1 in BALB/c mouse assessed as increase in tri-glucosylated FOS level in serum at >250 mg/kg, po administered via gavage as single dose at 8 hrs post-infection measured at 8 hrs post-dose by NP-HPLC analysis; assay type: functional, organism-based
[18] = system: dengue virus type 2; assay: Antiviral activity against Dengue virus 2 S221 infected in DENV antibody dependent enhancement AG129 mouse model assessed as animal survival at 375 mg/kg, po administered via gavage as two doses at 36 and 52 hrs post infection (reference value: 4%); assay type: functional
[19] = system: dengue virus type 2; assay: as §1, with “two doses” for “single dose”, “36 hrs and 52” for “36”, “72” for “60”; assay type: functional, organism-based
[20] = system: Influenza A virus; assay: Antiviral activity against Influenza A virus (A/Texas/36/1991(H1N1)) infected in BALB/c mouse assessed as median death time at 500 mg/kg, po administered via gavage as single dose at 24 hrs post infection (reference value: 8.5 days); assay type: functional
[21] = system: Mus musculus; assay: In vivo inhibition of ERGlu2 in BALB/c mouse assessed as increase in mono-glucosylated FOS level in serum at 100 mg/kg, po administered via gavage starting at 8 hrs post-infection and continuing tid for 5 days and measured at 8 hrs post-final dose by NP-HPLC analysis; assay type: functional, organism-based
[22] = system: Influenza A virus; assay: Antiviral activity against Influenza A virus (A/Texas/36/1991(H1N1)) infected in BALB/c mouse assessed as median death time at 500 mg/kg, po administered via gavage as single dose at 16 hrs post infection (reference value: 8.5 days); assay type: functional
[23] = system: Mus musculus; assay: In vivo inhibition of ERGlu2 in BALB/c mouse assessed as increase in mono-glucosylated FOS level in spleen at 20 mg/kg, po administered via gavage starting at 8 hrs post-infection and continuing tid for 5 days and measured at 8 hrs post-final dose by NP-HPLC analysis; assay type: functional, organism-based
[24] = system: Influenza A virus; assay: Antiviral activity against Influenza A virus (A/Texas/36/1991(H1N1)) infected in BALB/c mouse assessed as median death time at 500 mg/kg, po administered via gavage as single dose at 8 hrs post infection; assay type: functional
[25] = system: Mus musculus; assay: In vivo inhibition of ERGlu2 in BALB/c mouse assessed as increase in di-glucosylated FOS level in serum at 100 mg/kg, po administered via gavage starting at 8 hrs post-infection and continuing tid for 5 days and measured at 8 hrs post-final dose by NP-HPLC analysis; assay type: functional, organism-based
[26] = system: dengue virus type 2; assay: Antiviral activity against Dengue virus 2 S221 infected in DENV antibody dependent enhancement AG129 mouse model assessed as animal survival at 750 mg/kg, po administered via gavage as two doses at 8 and 24 hrs post infection (reference value: 4%); assay type: functional
[27] = system: Influenza A virus; assay: Antiviral activity against Influenza A virus (A/Texas/36/1991(H1N1)) infected in BALB/c mouse assessed as animal survival at 750 mg/kg, po administered via gavage as single dose at 8 hrs post infection (reference value: 0%); assay type: functional

**Q.** With `COCCCCCCCCCN1C[C@H](O)[C@@H](O)[C@H](O)[C@H]1CO.Cl` as the compound, how does the Time [1] read?
**A.** Its Time is over 14 days.

**Q.** What about the Activity [2] of the same compound?
**A.** The Activity was “Active”.

**Q.** What about the survival at 375 mg/kg [3] of the same compound?
**A.** The survival at 375 mg/kg was 100%.

**Q.** And the survival at 500 mg/kg [4]?
**A.** Its survival at 500 mg/kg is 50%.

**Q.** What about the Activity [5] of the same compound?
**A.** Its Activity is “Active”.

**Q.** What about the half-life [6] of the same compound?
**A.** Its half-life is 5 h.

**Q.** What about the survival at 250 mg/kg [7] of the same compound?
**A.** Its survival at 250 mg/kg is 86%.

**Q.** What about the survival at 750 mg/kg [8] of the same compound?
**A.** Its survival at 750 mg/kg is 100%.

**Q.** And the survival at 250 mg/kg [9]?
**A.** The survival at 250 mg/kg was 100%.

**Q.** And the survival at 750 mg/kg [10]?
**A.** Its survival at 750 mg/kg is 70%.

**Q.** What about the Activity [11] of the same compound?
**A.** The Activity was “Active”.

**Q.** And the inhibition [12]?
**A.** Its inhibition is “Active”.

**Q.** What about the survival at 500 mg/kg [13] of the same compound?
**A.** The survival at 500 mg/kg was 100%.

**Q.** What about the “log(activity)” value [14] of the same compound?
**A.** The value was over 1.

**Q.** And the survival at 500 mg/kg [15]?
**A.** The survival at 500 mg/kg was 86%.

**Q.** And the Time [16]?
**A.** The Time was over 14 days.

**Q.** What about the inhibition [17] of the same compound?
**A.** Its inhibition is “Active”.

**Q.** And the survival at 375 mg/kg [18]?
**A.** The survival at 375 mg/kg was 100%.

**Q.** What about the Activity [19] of the same compound?
**A.** Its Activity is “Active”.

**Q.** What about the Time [20] of the same compound?
**A.** Its Time is 11 days.

**Q.** And the inhibition [21]?
**A.** Its inhibition is “Active”.

**Q.** What about the Time [22] of the same compound?
**A.** Its Time is 12 days.

**Q.** And the inhibition [23]?
**A.** Its inhibition is “Active”.

**Q.** What about the Time [24] of the same compound?
**A.** The Time was 12.5 days.

**Q.** And the inhibition [25]?
**A.** Its inhibition is “Active”.

**Q.** And the survival at 750 mg/kg [26]?
**A.** Its survival at 750 mg/kg is 94%.

**Q.** What about the survival at 750 mg/kg [27] of the same compound?
**A.** The survival at 750 mg/kg was 80%.
